Drawing on ChEMBL document CHEMBL1154680, “Alkyl and dialkylaminoethyl derivatives of 5-amino-2-azabicyclo[3.2.2]nonanes and their antiplasmodial and antitrypanosomal activities” (Eur J Med Chem, 2010), this text covers selectivity ratio and IC50 for 18 compounds.

The nature of data set [1]: Selectivity index, ratio of IC50 for rat L6 cells to IC50 for chloroquine and pyrimethamine-resistant Plasmodium falciparum K1. The format is toxicity, cell-based. As to conditions: read-out: Ratio IC50.
Data set [2] in a line: Selectivity index, ratio of IC50 for rat L6 cells to IC50 for Trypanosoma brucei rhodesiense STIB 900. The data set is classed as toxicity, cell-based. Particulars: read-out: Ratio IC50.
Data set [3] concerns Plasmodium falciparum. Briefly: Antiplasmodial activity against chloroquine and pyrimethamine-resistant Plasmodium falciparum K1 by microplate assay. The format is functional, organism-based.
Data set [4] deals with L6. Briefly: Cytotoxicity against rat L6 cells. The format is cell-based.
For data set [5], the system named is Trypanosoma brucei rhodesiense. Briefly: […] activity against Trypanosoma brucei rhodesiense STIB 900 by microplate assay. The data set is classed as functional, organism-based.

For `Clc1ccc(C2CC3(N4CCCCC4)CCNC2C(c2ccc(Cl)cc2)C3)cc1` (stereo not given), the selectivity ratio in data set [1] came out at 17.6; in data set [2], 125.

For `Clc1ccc(C2CC3(N4CCCC4)CCNC2C(c2ccc(Cl)cc2)C3)cc1` (stereo not given), the selectivity ratio stood at 40.2 in data set [1] and 152 in data set [2].

`CN(C)C12CCNC(C(c3ccc(Cl)cc3)C1)C(c1ccc(Cl)cc1)C2` (stereo not given): the selectivity ratio in data set [1] is 21.3; in data set [2], 143.

Regarding `CN(C)C12CCN(Cc3ccccc3)C(C(c3ccccc3)C1)C(c1ccccc1)C2` (racemic), the selectivity ratio is 12.2 in data set [1] and 5.2 in data set [2]. The IC50 (in general, the point on the concentration scale where inhibition reaches its midpoint) was found to be 600 nM in data set [3], 7330 nM in data set [4] and 1410 nM in data set [5].

Consider `c1ccc(CN2CCC3(N4CCCC4)CC(c4ccccc4)C2C(c2ccccc2)C3)cc1` (racemic), for which the selectivity ratio in data set [1] turned out to be 5.67; in data set [2], 5.17. For the same compound, the values for the IC50 in data set [3], in data set [4] and in data set [5] were 820 nM, 4650 nM and 900 nM, respectively.

For `Clc1ccc(C2CC3(N4CCCC4)CCN(CCc4ccccc4)C2C(c2ccc(Cl)cc2)C3)cc1` (racemic), the selectivity ratio in data set [1] is 8.12; in data set [2], 3.7. The IC50 in data set [3] is 520 nM; in data set [4], 4220 nM; in data set [5], 1140 nM.

Regarding `CN1CCC2(N3CCCC3)CC(c3ccc(Cl)cc3)C1C(c1ccc(Cl)cc1)C2` (racemic), the selectivity ratio came to 8.44 in data set [1] and 21 in data set [2]. For the same compound, the values for the IC50 in data set [3], in data set [4] and in data set [5] were 870 nM, 7340 nM and 350 nM, respectively.

On to `c1ccc(CCN2CCC3(N4CCCC4)CC(c4ccccc4)C2C(c2ccccc2)C3)cc1` (racemic), for which the selectivity ratio was found to be 3.84 in data set [1] and 3.97 in data set [2]. Further, the IC50 in data set [3] amounted to 960 nM; in data set [4] it was 3690 nM; in data set [5], 930 nM.

Turning to `CN1CCC2(N(C)C)CC(c3ccccc3)C1C(c1ccccc1)C2` (racemic), the half-maximal inhibitory concentration (IC50) was determined as 109000 nM in data set [4] and 1760 nM in data set [5]. The selectivity ratio in data set [2] was 61.9.

`CN(C)C12CCN(CCN3CCCC3)C(C(c3ccccc3)C1)C(c1ccccc1)C2` (racemic): the selectivity ratio in data set [1] was found to be 136; in data set [2] it was 60.9. Moreover, the IC50 was 590 nM in data set [3], 80400 nM in data set [4] and 1320 nM in data set [5].

Turning to `c1ccc(CCN2CCC3(N4CCCCC4)CC(c4ccccc4)C2C(c2ccccc2)C3)cc1` (racemic), the selectivity ratio in data set [1] was found to be 11.8; in data set [2] it was 7. For the same compound, the IC50 was 710 nM in data set [3], 8400 nM in data set [4] and 1200 nM in data set [5].

Take `CN1CCC2(N3CCCC3)CC(c3ccccc3)C1C(c1ccccc1)C2` (racemic): the selectivity ratio was 53.5 in data set [1] and 49.5 in data set [2]. The IC50 in data set [3] was found to be 1720 nM; in data set [4], 92100 nM; in data set [5], 1860 nM.

For `CN(C)C12CCN(CCc3ccccc3)C(C(c3ccccc3)C1)C(c1ccccc1)C2` (racemic), the values for the selectivity ratio in data set [1] and in data set [2] were 38.3 and 8.07, respectively. Besides, the figures for the IC50 in data set [3], in data set [4] and in data set [5] were 120 nM, 4600 nM and 570 nM, respectively.

With `CN(C)C12CCN(CCc3ccccc3)C(C(c3ccc(Cl)cc3)C1)C(c1ccc(Cl)cc1)C2` (racemic), the values for the selectivity ratio in data set [1] and in data set [2] were 7.23 and 3.66, respectively. For the same compound, the IC50 in data set [3] was found to be 470 nM; in data set [4], 3400 nM; in data set [5], 930 nM.

On to `c1ccc(C2CC3(N4CCCC4)CCN(CCN4CCCC4)C2C(c2ccccc2)C3)cc1` (racemic), for which the selectivity ratio in data set [1] amounted to 116; in data set [2], 17.2. For the same compound, the 50% inhibitory concentration (IC50) was 500 nM in data set [3], 58200 nM in data set [4] and 3380 nM in data set [5].

`c1ccc(C2CC3(N4CCCCC4)CCN(CCN4CCCC4)C2C(c2ccccc2)C3)cc1` (racemic): the selectivity ratio in data set [1] came out at 1690; in data set [2], 6.09. The IC50 in data set [3] was determined as 92 nM; in data set [4] it was 156000 nM; in data set [5], 25600 nM.

On to `Clc1ccc(C2CC3(N4CCCCC4)CCN(CCc4ccccc4)C2C(c2ccc(Cl)cc2)C3)cc1` (racemic), for which the selectivity ratio in data set [1] was found to be 10.8; in data set [2], 4.24. Moreover, the IC50 was found to be 730 nM in data set [3], 7890 nM in data set [4] and 1860 nM in data set [5].

`C[C@@H]1CC[C@H]2[C@@H](C)C(=O)O[C@@H]3O[C@@]4(C)CC[C@@H]1[C@]32OO4` [ARTEMISININ] had a half-maximal inhibitory concentration (IC50) in data set [3] of 6.4 nM.
